Measurements taken from patent US10633407B2, “14-membered ketolides and methods of their preparation and use” (President and Fellows of Harvard College, priority 2014, dated 2020).
Converted amounts (≈) assume the structure as drawn.

Columns and labels:
Assay in all cases: CLSI broth dilution MIC determination
Type in all cases: cell-based
K. pneumoniae KPC-2 = conditions: Gram-negative
[1] = tested on: E. faecalis Vancomycin-resistant; conditions: E. faecalis Vancomycin-resistant; Gram-positive
P. aeruginosa ATCC 27853 = conditions: P. aeruginosa ATCC 27853; Gram-negative
K. pneumoniae ATCC 10031 = conditions: K. pneumoniae ATCC 10031; Gram-negative
K. pneumoniae SHV-12 = conditions: Gram-negative
S. pyogenes ATCC 19615 = conditions: S. pyogenes ATCC 19615; Gram-positive
A. baumannii IMP-4 = conditions: Gram-negative
[2] = tested on: S. pneumoniae mef A genotype (second strain so labelled); conditions: Gram-positive
Summary of the method: (§1)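 Broth dilution per CLSI standards; azithromycin and solithromycin run as control macrolides in many cases. Resistance genotypes constitutive or inducible.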

E. coli ATCC 25922 = conditions: E. coli ATCC 25922; Gram-negative
Summary of the method: as §1

E. coli CTX-M-14 = conditions: Gram-negative
Summary of the method: as §1

E. coli TEM-1 = conditions: E. coli TEM-1; Gram-negative
Summary of the method: as §1

S. aureus USA600, GISA = conditions: S. aureus USA600, GISA; Gram-positive
Summary of the method: as §1

S. aureus erm A genotype = conditions: S. aureus erm A genotype; Gram-positive
Summary of the method: as §1

E. coli NDM-1 = conditions: Gram-negative
Summary of the method: as §1

S. pneumoniae ATCC 49619 = conditions: S. pneumoniae ATCC 49619; Gram-positive
Summary of the method: as §1

S. aureus MRSA: USA100 = conditions: S. aureus MRSA: USA100; Gram-positive
Summary of the method: as §1

K. pneumoniae TEM-10 = conditions: Gram-negative
S. aureus MRSA: USA300 = conditions: S. aureus MRSA: USA300; Gram-positive
Summary of the method: as §1

[3] = tested on: S. pneumoniae erm B + mef A genotype; conditions: S. pneumoniae erm B + mef A genotype; Gram-positive
Summary of the method: as §1

S. aureus ATCC 29213 = conditions: S. aureus ATCC 29213; Gram-positive
Summary of the method: as §1

H. influenzae ATCC49247 = conditions: Gram-negative
Summary of the method: as §1

[4] = tested on: S. pyogenes Macrolide-resistant; conditions: S. pyogenes Macrolide-resistant; Gram-positive
[5] = tested on: A. baumannii chromosomal class C; conditions: Gram-negative
E. faecalis ATCC 29212 = conditions: E. faecalis ATCC 29212; Gram-positive
[6] = tested on: P. aeruginosa HPA101-1477; conditions: Gram-negative
[7] = tested on: H. influenzae Erythro >4, Azithro 1; conditions: H. influenzae Erythro >4, Azithro 1; Gram-negative
From the text: MIC data was collected for the novel macrolides that this platform has produced against over 21 unique strains of B. subtilis, E. coli, S. aureus, S. pneumoniae, and H. influenzae, including several multidrug-resistant strains, with a special focus on macrolide resistant mechanisms (vide supra). […] CLSI standard procedures for broth dilution MIC determination were used. […] These genotypes can be constitutive or inducible.

A. baumannii ATCC 19606 = conditions: A. baumannii ATCC 19606; Gram-negative
[8] = tested on: A. baumannii imipenem-resistant; conditions: Gram-negative

SMILES | MIC (K. pneumoniae KPC-2) | MIC [1] | MIC (P. aeruginosa ATCC 27853) | MIC (K. pneumoniae ATCC 10031) | MIC (K. pneumoniae SHV-12) | MIC (S. pyogenes ATCC 19615) | MIC (A. baumannii IMP-4) | MIC [2] | MIC (E. coli ATCC 25922) | MIC (E. coli CTX-M-14) | MIC (E. coli TEM-1) | MIC (S. aureus USA600, GISA) | MIC (S. aureus erm A genotype) | MIC (E. coli NDM-1) | MIC (S. pneumoniae ATCC 49619) | MIC (S. aureus MRSA: USA100) | MIC (K. pneumoniae TEM-10) | MIC (S. aureus MRSA: USA300) | MIC [3] | MIC (S. aureus ATCC 29213) | further results
CC[C@H]1OC(=O)[C@H](C)C(=O)[C@H](C)[C@@H](O[C@@H]2OC(C)CC(N(C)C)C2O)[C@](C)(OC)C[C@@H](C)C(=O)[C@H](C)[C@H]2N(C/C=C/Cn3cc(-c4cccc(N)n4)nn3)C(=O)O[C@]12C (some centres unmarked) [FSM-100364] | > 32 µg/mL | > 32 µg/mL | > 32 µg/mL | 8 µg/mL (≈ 9.69 µM) | > 32 µg/mL | < 0.0312 µg/mL | > 32 µg/mL | 0.25 µg/mL (≈ 0.303 µM) | 16 µg/mL (≈ 19.4 µM) | > 32 µg/mL | > 32 µg/mL | > 32 µg/mL | > 32 µg/mL | > 32 µg/mL | < 0.0312 µg/mL | > 32 µg/mL | 32 µg/mL (≈ 38.7 µM) | 2 µg/mL (≈ 2.42 µM) | 0.125 µg/mL | < 0.0312 µg/mL | MIC (H. influenzae ATCC49247): 2 µg/mL (≈ 2.42 µM); MIC [4]: < 0.0312 µg/mL; MIC [5]: 8 µg/mL (≈ 9.69 µM); MIC (E. faecalis ATCC 29212): < 0.0312 µg/mL; MIC [6]: > 32 µg/mL; MIC [7]: 0.5 µg/mL (≈ 0.605 µM); MIC (A. baumannii ATCC 19606): 8 µg/mL (≈ 9.69 µM); MIC [8]: 4 µg/mL (≈ 4.84 µM)
CC[C@H]1OC(=O)[C@H](C)C(=O)[C@H](C)[C@@H](O[C@@H]2OC(C)CC(N(C)C)C2O)[C@](C)(OC)C[C@@H](C)C(=O)[C@H](C)[C@H]2N(C/C=C/Cn3cc(-c4ccccn4)nn3)C(=O)O[C@]12C (some centres unmarked) [FSM-100341] | > 32 µg/mL | > 32 µg/mL | > 32 µg/mL | 8 µg/mL (≈ 9.86 µM) | > 32 µg/mL | < 0.0312 µg/mL | > 32 µg/mL | < 0.0312 µg/mL | > 32 µg/mL | > 32 µg/mL | 32 µg/mL (≈ 39.5 µM) | > 32 µg/mL | > 32 µg/mL | > 32 µg/mL | < 0.0312 µg/mL | > 32 µg/mL | 32 µg/mL (≈ 39.5 µM) | 2 µg/mL (≈ 2.47 µM) | 0.25 µg/mL | < 0.0312 µg/mL | MIC (H. influenzae ATCC49247): 1 µg/mL (≈ 1.23 µM); MIC [4]: < 0.0312 µg/mL; MIC [5]: 32 µg/mL (≈ 39.5 µM); MIC (E. faecalis ATCC 29212): < 0.0312 µg/mL; MIC [6]: > 32 µg/mL; MIC [7]: 1 µg/mL (≈ 1.23 µM); MIC (A. baumannii ATCC 19606): 16 µg/mL (≈ 19.7 µM); MIC [8]: 16 µg/mL (≈ 19.7 µM)
CC[C@H]1OC(=O)[C@H](C)C(=O)[C@H](C)[C@@H](O[C@@H]2OC(C)CC(N(C)C)C2O)[C@](C)(OC)C[C@@H](C)C(=O)[C@H](C)[C@H]2N(CC#CCn3cc(-c4cccc(N)c4)nn3)C(=O)O[C@]12C (some centres unmarked) [FSM-100239] | > 32 µg/mL | 16 µg/mL (≈ 19.4 µM) | > 32 µg/mL | 4 µg/mL (≈ 4.86 µM) | > 32 µg/mL | ≤ 0.0312 µg/mL | > 32 µg/mL | ≤ 0.0312 µg/mL | 16 µg/mL (≈ 19.4 µM) | > 32 µg/mL | 16 µg/mL (≈ 19.4 µM) | > 32 µg/mL | > 32 µg/mL | > 32 µg/mL | ≤ 0.0312 µg/mL | > 32 µg/mL | 32 µg/mL (≈ 38.9 µM) | 0.25 µg/mL (≈ 0.304 µM) | 0.0625 µg/mL | ≤ 0.0312 µg/mL | MIC (H. influenzae ATCC49247): 1 µg/mL (≈ 1.22 µM); MIC [4]: ≤ 0.0312 µg/mL; MIC [5]: 2 µg/mL (≈ 2.43 µM); MIC (E. faecalis ATCC 29212): ≤ 0.0312 µg/mL; MIC [6]: > 32 µg/mL; MIC [7]: 1 µg/mL (≈ 1.22 µM); MIC (A. baumannii ATCC 19606): 8 µg/mL (≈ 9.72 µM); MIC [8]: 4 µg/mL (≈ 4.86 µM)
CC[C@H]1OC(=O)[C@H](C)C(=O)[C@H](C)[C@@H](O[C@@H]2OC(C)CC(N(C)C)C2O)[C@](C)(OC)C[C@@H](C)C(=O)[C@H](C)[C@H]2N(CC3CC3Cn3cc(-c4cccc(N)c4)nn3)C(=O)O[C@]12C (single isomer, unassigned) [FSM-100428] | > 32 µg/mL | > 32 µg/mL | > 32 µg/mL | 16 µg/mL (≈ 19.1 µM) | > 32 µg/mL | < 0.0312 µg/mL | > 32 µg/mL | < 0.0312 µg/mL | 32 µg/mL (≈ 38.1 µM) | > 32 µg/mL | 32 µg/mL (≈ 38.1 µM) | > 32 µg/mL | > 32 µg/mL | > 32 µg/mL | < 0.0312 µg/mL | > 32 µg/mL | 32 µg/mL (≈ 38.1 µM) | 4 µg/mL (≈ 4.77 µM) | 0.0625 µg/mL | < 0.0312 µg/mL | MIC (H. influenzae ATCC49247): 4 µg/mL (≈ 4.77 µM); MIC [4]: < 0.0312 µg/mL; MIC [5]: 16 µg/mL (≈ 19.1 µM); MIC (E. faecalis ATCC 29212): < 0.0312 µg/mL; MIC [6]: > 32 µg/mL; MIC [7]: 2 µg/mL (≈ 2.38 µM); MIC (A. baumannii ATCC 19606): 16 µg/mL (≈ 19.1 µM); MIC [8]: 16 µg/mL (≈ 19.1 µM)
CC[C@H]1OC(=O)[C@H](C)C(=O)[C@H](C)[C@@H](O[C@@H]2OC(C)CC(N(C)C)C2O)[C@](C)(OC)C[C@@H](C)C(=O)[C@H](C)[C@H]2N(CC3CC3Cn3cc(-c4cccc(N)c4)nn3)C(=O)O[C@]12C (some centres unmarked) [FSM-100429] | > 32 µg/mL | > 32 µg/mL | > 32 µg/mL | 32 µg/mL (≈ 38.1 µM) | > 32 µg/mL | < 0.0312 µg/mL | > 32 µg/mL | 0.0625 µg/mL (≈ 0.0745 µM) | > 32 µg/mL | > 32 µg/mL | > 32 µg/mL | > 32 µg/mL | > 32 µg/mL | > 32 µg/mL | < 0.0312 µg/mL | > 32 µg/mL | > 32 µg/mL | > 32 µg/mL | > 32 µg/mL | 0.125 µg/mL (≈ 0.149 µM) | MIC (H. influenzae ATCC49247): > 32 µg/mL; MIC [4]: < 0.0312 µg/mL; MIC [5]: 32 µg/mL (≈ 38.1 µM); MIC (E. faecalis ATCC 29212): < 0.0312 µg/mL; MIC [6]: > 32 µg/mL; MIC [7]: > 32 µg/mL; MIC (A. baumannii ATCC 19606): > 32 µg/mL; MIC [8]: 32 µg/mL (≈ 38.1 µM)
